Source: patent US12139729B2, “Neurodegenerative disorders” (priority 2013, dated 2024)
Residues, ends and D or L forms follow the SMILES beside them.

Experiments:
[1] = Partition coefficient (Log P), shake-tube method, 1-octanol/water; type: physicochemical; settings: room temperature
Protocol: Saturation of the solvents was performed as follows. 1-octanol was agitated in the presence of water for 24 h at room temperature. mQ water was agitated in presence of 1-octanol for 24 h at room temperature. Then the solutions were left to equilibrate overnight at room temperature. Saturated solvents were collected, using syringes and needles, and stored at room temperature until further use.
Saturated water and saturated i-octanol were placed in a glass tube in the following ratios: Each tube contained the equivalent of 0.25 mg of cyclic T14. All tubes were then mixed for 4 h at room temperature. After agitation the tubes were left at room temperature to equilibrate.
The concentrations of cyclic T14 used for the standard curve were: 0.5 mg·ml^−1, 0.25 mg·ml^−1, 0.13 mg·ml^−1, 0.066 mg·ml^−1, 0.033 mg·ml^−1 and 0.016 mg/ml^−1. The absorbance of the standard curve was measured at 280 nm.
Both fractions of each sample were collected separately using a syringe with needle. The absorbance of all fractions was measured at 280 nm and the concentration of all the fraction was estimated based on the standard curve. The partition coefficient of cyclic T14 was calculated using the following equation: Log P=Log (Concentration in Octanol/Concentration in Water)
The results from each condition were averaged in order to obtain the Log P of cyclic T14.

[2] = test system: rat brain slices; assay: Calcium fluorometry (Fluo-4) in brain slices; type: cell-based; settings: two hours
Protocol: Increases in intracellular Ca^2+ were monitored by measuring changes in fluorescence in cells loaded with Fluo-4 (Life Technologies Corporation, UK). […] After the 2 hours, slices were incubated in the dark for 40 minutes at room temperature with 1.2 ml/well of loading medium that contained: Tyrode's salt solution (TSS; 137 mM NaCl, 2.7 mM KCl, 1.0 mM MgCl2, 2.5 mM CaCl2, 0.2 mM NaH2PO4, 12.0 NaHCO3, 5.5 glucose, pH 7.4), Fluo-4 (2 μM), Pluronic F127 (0.02%) and probenecid (2 mM). Probenecid is a blocker of the multidrug resistant protein, an ion transporter, and avoids the excretion of the fluorescent molecule from the cell. After incubation, slices were washed with TSS and 1200 μl/well of de-esterification medium, containing TSS and probenecid, were added. Slices were incubated in the dark for 20 minutes at 22° C. Fluorescence measurements (excitation 485 nm, emission 538 nm) were recorded in a Fluostar Optima (BMG, UK) plate reader.

[3] = biological target: T1, acetylcholinesterase (AChE) (Rattus norvegicus, UniProt P37136); assay: Acetylcholinesterase enzymatic activity assay (Ellman reagent); type: biochemical
T1 construct: endogenous in cells; host or cells: PC12 cells (released enzyme in the supernatant)
T1 sequence (P37136 32-614): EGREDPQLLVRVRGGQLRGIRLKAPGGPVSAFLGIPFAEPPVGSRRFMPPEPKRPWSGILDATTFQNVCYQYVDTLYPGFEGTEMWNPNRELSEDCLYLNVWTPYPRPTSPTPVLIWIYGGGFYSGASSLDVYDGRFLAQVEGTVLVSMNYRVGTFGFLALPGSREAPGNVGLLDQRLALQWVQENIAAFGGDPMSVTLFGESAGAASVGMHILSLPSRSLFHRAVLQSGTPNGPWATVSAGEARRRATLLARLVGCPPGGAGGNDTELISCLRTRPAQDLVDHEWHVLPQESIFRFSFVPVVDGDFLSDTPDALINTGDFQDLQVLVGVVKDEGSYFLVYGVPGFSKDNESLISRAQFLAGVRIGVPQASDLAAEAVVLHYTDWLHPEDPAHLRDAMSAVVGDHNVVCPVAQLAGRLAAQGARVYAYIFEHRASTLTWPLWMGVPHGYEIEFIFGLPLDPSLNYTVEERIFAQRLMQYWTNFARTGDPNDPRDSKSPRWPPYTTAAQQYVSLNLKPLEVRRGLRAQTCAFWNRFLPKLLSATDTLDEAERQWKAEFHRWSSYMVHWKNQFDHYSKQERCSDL
Protocol: AChE activity was measured using the Ellman reagent that measures the presence of thiol groups as a result of AChE activity. Cells were plated the day before the experiment as for the cell viability assay. Cells were treated with different concentrations of Cyclic T14 (0.1-100 μM) and T30, T14 and Aβ 10 μM alone or combined with Cyclic T14 (0.1 and 0.7 μM). […] The Ellman reagent was prepared as a mixture of the 3 solutions in a ratio 33(A):3(B):4(C). Absorbance measurements were taken at regular intervals (3, 10, 30 and 60 mins) across experiments at 405 nm.
The inventor next decided to confirm whether or not Cyclic T14 affects the enzymatic activity of acetylcholinesterase (AChE). AChE enzymatic activity was measured using the acetylcholinesterase activity assay.

[4] = test system: rat model for hemi-Parkinsonism; assay: Paw placement test (cylinder test) after 6-OHDA lesion; type: in vivo; settings: day 2: two days post 6-OHDA, one day after NBP-14 injection via cannula into MFB; p<0.05 vs 6-OHDA vehicle
Protocol: Unlike animal models for Alzheimer's disease, the rat model for hemi-Parkinsonism is very well established and readily quantifiable. Accordingly, a unilateral intra striatum injection of the T30 was administered to observe any behavioural effects of the toxin. In a subsequent experiment, the potential protective effects of NBP14 were observed against the well-known neurotoxin 6-hydroxydopamine (6-OHDA), which led to DA neuron loss on the injected side whilst sparing the contralateral DA neurons. NBP-14 was administered via implanted cannula into the medial forebrain bundle (MFB). 6-hydroxydopamine was injected at 10 mg/kg.
Animals are anaesthetized using Ketamine (10%; 0.1 ml/kg body weight) and Xylazine (2%; 0.01 ml/kg). The animals are then stereotactically injected into the MFB with 2 μL 6-OHDA at a concentration of 20 mg/ml in 0.02% ascorbic acid. […]
Paw Placement Test (Cylinder Test): This test assesses a rat's independent forelimb use to support the body against the walls of a cylindrical enclosure. […] To perform this test, rats are placed individually in a glass cylinder (21 cm diameter, 34 cm height) and wall exploration is recorded for 3 minutes. […] Wall exploration is expressed in terms of the ratio between the intact (R) and impaired legs (L) and calculated as the values of intact right+both forelimbs divided into the values of impaired left+both forelimbs (R/L). […]

Which logP [1] does the source give for `CSCC[C@@H]1NC(=O)[C@H](Cc2ccc(O)cc2)NC(=O)[C@H](CO)NC(=O)[C@H](CO)NC(=O)[C@H](Cc2c[nH]c3ccccc23)NC(=O)[C@H](CCCNC(=N)N)NC(=O)[C@H](Cc2c[nH]cn2)NC(=O)[C@H](Cc2ccccc2)NC(=O)[C@H](CCC(=O)O)NC(=O)[C@H](C)NC(=O)[C@H](CCCCN)NC(=O)[C@H](Cc2c[nH]c3ccccc23)NC(=O)[C@H](Cc2c[nH]cn2)NC(=O)[C@H](C(C)C)NC1=O` [Cyclic T14] (cyclo(AEFHRWSSYMVHWK)) here?
The logP was -0.59.

And the “intracellular calcium level raised by β-Amyloid, combined with Cyclic T14” value ([2]; Cyclic T14 1 μM + β-Amyloid 10 μM)?
Its value is “returned to baseline”.

And the “intracellular calcium level, compound alone” value ([2]; Cyclic T14 1 μM)?
Its value is “does not change the basal level”.

What about the “effect on enzyme activity of acetylcholinesterase” value ([3]; 2 μM) of the same molecule?
The value was “did not affect”.

And the “effect on AChE activity (Table 3 feature)” value ([3]; ✓ = Dream Drug feature 'Does not affect AChE activity')?
The value was “✓”.

What about the “R/L ratio of paw placement” value [4] of the same molecule?
The value was 3.62±0.55.
